One data set deals with T1, OATP2B1 (SLCO2B1) (Homo sapiens, UniProt O94956).
T1 sequence (O94956 1-709): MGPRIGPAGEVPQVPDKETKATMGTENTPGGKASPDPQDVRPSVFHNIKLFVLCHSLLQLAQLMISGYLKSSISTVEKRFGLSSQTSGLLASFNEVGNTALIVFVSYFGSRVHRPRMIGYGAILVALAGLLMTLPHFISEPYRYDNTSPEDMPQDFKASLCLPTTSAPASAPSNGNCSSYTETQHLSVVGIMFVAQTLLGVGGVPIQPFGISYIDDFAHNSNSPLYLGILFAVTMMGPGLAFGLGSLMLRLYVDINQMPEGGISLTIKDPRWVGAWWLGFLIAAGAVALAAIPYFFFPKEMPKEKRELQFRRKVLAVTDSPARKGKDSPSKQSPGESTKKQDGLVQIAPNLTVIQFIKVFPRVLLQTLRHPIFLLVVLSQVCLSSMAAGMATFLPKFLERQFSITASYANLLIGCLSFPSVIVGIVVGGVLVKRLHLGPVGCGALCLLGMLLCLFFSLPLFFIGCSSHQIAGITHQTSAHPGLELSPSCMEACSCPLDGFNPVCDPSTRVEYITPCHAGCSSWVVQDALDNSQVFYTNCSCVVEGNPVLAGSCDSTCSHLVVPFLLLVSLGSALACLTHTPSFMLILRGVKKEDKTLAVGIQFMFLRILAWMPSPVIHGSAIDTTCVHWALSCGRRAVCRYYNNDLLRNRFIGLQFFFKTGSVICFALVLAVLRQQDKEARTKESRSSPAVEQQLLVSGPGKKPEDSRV

On the set-up of data set [1]: method as in PMID 23887590. To be noted: following ritonavir pretreatment; cited from earlier work.
The subject of a further data set is OATP2B1. Set-up: method as in PMID 28005438. To be noted: cited from earlier work.
Details of data set [2]: method as in PMID 27036206. The conditions noted are these: combination of erlotinib with rosuvastatin, 24 patients; cited from earlier work.

Molecules are shown by their SMILES.

Procedure for OATP2B1 (SLCO2B1): OATP overexpression was confirmed by Western blotting. Functionality of the OATPs was verified by [^3H]estrone-3-sulfate uptake experiments. A431 cells transfected with the empty vector were used as a negative control. All cell lines were cultured in Dulbecco's modified eagle medium supplemented with 10% fetal bovine serum, 2 mM L-glutamine, 100 units/mL penicillin and 100 µg/mL streptomycin. […] On the day of the experiment, growth medium was aspired and cells were washed with pre-warmed transport buffer (Hank's balanced salt solution supplemented with 10 mM N-2-hydroxyethylpiperazine-N-2-ethane sulfonic acid). […] Then the drug solutions were removed and cells were washed with pre-warmed transport buffer. […] For time dependency experiments, pre-warmed transport buffer was added and cells were incubated for 30 min. […] For concentration dependency experiments, pre-warmed transport buffer was added and cells were incubated for 30 min. […] In all experiments, cell count was determined on separate 24-well tissue culture plates before or after each experiment. In all experiments, radiotracer solutions were aspired following incubation and cells were washed twice with ice-cold transport buffer. […] Each inhibition experiment was performed 2 times with 3 technical replicates each and radioactivity in cells was corrected for radioactive decay, normalized to 10^6 cells and expressed as percent of vector control (% control). The time dependency experiment was performed once with 3 technical replicates and radioactivity in cells was corrected for radioactive decay and expressed as percent of applied dose per 10^6 cells (%AD/10^6 cells). The concentration dependency experiment was performed once with 3 technical replicates and radioactivity in cells was corrected for radioactive decay. Kinetic parameters were determined using a previously described method.^2 In brief, cellular radioactivity uptake was converted into units of pmol/min/10^6 cells. OATP2B1-specific uptake of erlotinib was determined by subtracting the uptake into cells transfected with the empty vector from the uptake into cells transfected with OATP2B1. The following equation was used to obtain kinetic parameters:
where v is the uptake velocity of erlotinib (pmol/min/10^6 cells), S is the erlotinib concentration in the transport buffer (µM), Km is the Michaelis constant (µM), Vmax is the maximum uptake velocity (pmol/min/10^6 cells), and Pdif is the non-saturable uptake clearance (µL/min/10^6 cells). Curve fitting was performed by the non-linear regression method with a modified Michaelis-Menten model according to equation 1 using Prism 6.0 software (GraphPad Software).

As to `C#Cc1cccc(Nc2ncnc3cc(OCCOC)c(OCCO[11CH3])cc23)c1` [[^11C]erlotinib], the “Michaelis constant (K m) of the saturable component of OATP2B1‐specific uptake” value on OATP2B1 (SLCO2B1) (7.5 min, erlotinib 0.05–2.05 μM, ± standard error) was found to be 0.324 ± 0.182 µM. For the same compound, the “incubation time at maximum difference in uptake between OATP2B1 cells and the other cells” value at OATP2B1 (SLCO2B1) (<0.1 μM, time dependency experiment) lay within 10 to 15 min. Turning to `Cc1cc(C)c(NC(=O)CN(CC(=O)[O-])CC(=O)[O-])c(C)c1Br.Cc1cc(C)c(NC(=O)CN(CC(=O)[O-])CC(=O)[O-])c(C)c1Br.[99Tc+4]` [[^99mTc]mebrofenin], in data set [1], the “increase in the efflux clearance from liver to blood” value is recorded as 517% and the “reduction in CL uptake” value is listed as 46%. For `COc1cc2ncnc(Nc3ccc(F)c(Cl)c3)c2cc1OCCCN1CCOCC1` [gefitinib], the “transport by OATP2B1” value with OATP2B1 is on record as “transported”. In the case of `CO[C@H]1/C=C/O[C@@]2(C)Oc3c(C)c(O)c4c(O)c(c(/C=N/N5CCN(C)CC5)c(O)c4c3C2=O)NC(=O)/C(C)=C\C=C\[C@H](C)[C@H](O)[C@@H](C)[C@@H](O)[C@@H](C)[C@H](OC(C)=O)[C@@H]1C` [rifampicin], at OATP2B1 (SLCO2B1) (erlotinib 1 μM, cyclosporine A 10 μM, rifampicin 100 μM, 5 min), the “effect on [^11C]erlotinib uptake in OATP2B1 overexpressing cells” value is listed as “significantly decreased”.

On to `CC(C)c1nc(N(C)S(C)(=O)=O)nc(-c2ccc(F)cc2)c1/C=C/[C@@H](O)C[C@@H](O)CC(=O)O` [rosuvastatin], for which the “rate of muscle toxicity” value in data set [2] is 34%.
